Test results from patent US8404847B2, “Method for producing diamine derivative” (Daiichi Sankyo Company, Limited, priority 2008, dated 2013).

Experiments:
[1] = Solubility of compound A under crystallization conditions with varying amounts of TsOH.H2O (Test Example 1); format: physicochemical; details: ethanol having a water content of 10%, 10° C.
Description: The ordinate depicts the solubility (mg/ml) of compound A, and the abscissa depicts the molar equivalent of p-toluenesulfonic acid monohydrate (vs. compound B).
The solubility of compound A was determined using varying amounts of TsOH.H2O under conditions for crystallizing compound A (ethanol having a water content of 10%, 10° C.). Specifically, compound A, compound B, and TsOH.H2O were added in the combinations shown below to 10 ml of ethanol having a water content of 10%. The resulting slurry was stirred at 10° C., and crystals were collected by filtration. Then, the content of the compound A contained in the filtered mother liquor was measured by HPLC (column: Shiseido CAPCELL PAK CN UG120 (4.6×250 mm), column temperature: 40° C., flow rate: 1.0 ml/min., mobile phase: acetonitrile:0.02 M phosphate buffer (pH 7.0)=30:70).

[2] = Stability of compound B under dissolution conditions with varying amounts of TsOH.H2O (Test Example 2); format: physicochemical; details: ethanol having a water content of 30%, 70° C.
Description: FIG. 2 depicts time-dependent (hr; abscissa) change in the amount of compound B (%; ordinate) with the initial (0 hr) amount of compound B defined as 100%.
The stability of compound B was determined using varying amounts of TsOH.H2O under conditions for dissolving compound B in a solvent (ethanol having a water content of 30%, 70° C.). Specifically, 7 ml of ethanol having a water content of 30% and TsOH.H2O were added in combinations shown below to 1.0 g of compound B, followed by dissolution at 70° C. The content of the compound B was measured at constant time intervals by HPLC (column: Shiseido CAPCELL PAK CN UG120 (4.6×250 mm), column temperature: 40° C., flow rate: 1.0 ml/min., mobile phase: acetonitrile:0.02 M phosphate buffer (pH 7.0)=30:70).

CN1CCc2nc(C(=O)N[C@@H]3C[C@@H](C(=O)N(C)C)CC[C@@H]3NC(=O)C(=O)Nc3ccc(Cl)cn3)sc2C1.Cc1ccc(S(=O)(=O)O)cc1.O [compound A, N^1-(5-chloropyridin-2-yl)-N^2-((1S,2R,4S)-4-[(dimethylamino)carbonyl]-2-{[(5-methyl-4,5,6,7-tetrahydrothiazolo[5,4-c]pyridin-2-yl)carbonyl]amino}cyclohexyl)ethanediamide p-toluenesulfonic acid monohydrate]
solubility of compound A ([1]; TsOH.H2O larger than 1.00 molar equivalent with respect to compound B): reduced | solubility of compound A ([1]; TsOH.H2O smaller than 1.00 molar equivalent with respect to compound B): increased

CN1CCc2nc(C(=O)N[C@@H]3C[C@@H](C(=O)N(C)C)CC[C@@H]3NC(=O)C(=O)Nc3ccc(Cl)cn3)sc2C1 [compound B, N^1-(5-chloropyridin-2-yl)-N^2-((1S,2R,4S)-4-[(dimethylamino)carbonyl]-2-{[(5-methyl-4,5,6,7-tetrahydrothiazolo[5,4-c]pyridin-2-yl)carbonyl]amino}cyclohexyl)ethanediamide]
decomposition of compound B (decrease in compound B content) ([2]; TsOH.H2O at less than 1.0 molar equivalent (vs. compound B)): suppressed | decomposition of compound B (decrease in compound B content) ([2]; TsOH.H2O at more than 1.0 molar equivalent (vs. compound B)): promoted with the excess
